Experimental data from patent US11904037B2, “Enzymatic molecule mimicking anti-oxidant activity” (BIONUCLEI, priority 2018, dated 2024).

Experiment: ABTS degradation, comparison with tocopherol after dark or UV exposure
Conditions: colloids 0.5 g/L, tocopherol 1.5 g/L
Experimental: The protocol for preparing the solutions as in point 4.1/ was repeated with a concentration of ZnO/3-hydroxybenzaldehyde colloids of 0.5 g/L and a concentration of tocopherol of 1.5 g/L.
The solutions obtained were separated: a fraction of the solution being placed in the dark, and the remaining fraction being placed under UV irradiation. After 30 minutes of exposure (to the dark or to UV), 30 μL of a concentrated solution of ABTS (7 mM) was added, and the absorption was then measured.

- ABTS degradation capacity (after 30 minutes of exposure to UV): 22%
- ABTS degradation capacity (after 30 minutes of exposure to the dark): 22%
Substance: tocopherol
